# Assay results taken from patent US20080214535A1, “Amorphous Aprepitant Coprecipitates” (DR. REDDY'S LABORATORIES LTD., priority 2005, published 2008).
# Read-outs that look alike come from different tables or passages of the source.
# Experiments:
# [1] = cited from earlier work
# [2] = Solubility comparison: saturated solution in water, absorbance at 210 nm; type: physicochemical; settings: room temperature
# Experimental: Solubility studies of different aprepitant powders were conducted. Sufficient aprepitant having either crystalline Form I or II, or in the form of an amorphous povidone coprecipitate, was added to a 25 ml test tube containing 10 ml of water at room temperature to get a saturated solution. The solutions were filtered and filtrate was used to obtain the absorbance at 210 nm. Absorbance was compared to standards prepared by dissolving aprepitant in methanol, then diluting aliquots with water.
Solubility in water [2],Compound,Solubility in acetonitrile ([1]; acetonitrile),Solubility in ethanol ([1]; ethanol),Solubility in isopropyl acetate ([1]; isopropyl acetate),Solubility in water ([1]; water)
,"C[C@@H](O[C@H]1OCCN(Cc2n[nH]c(=O)[nH]2)[C@H]1c1ccc(F)cc1)c1cc(C(F)(F)F)cc(C(F)(F)F)c1 [Aprepitant, 5-[[(2R,3S)-2-[(1R)-1-[3,5-bis(trifluoromethyl)phenyl]ethoxy]-3-(4-fluorophenyl)-4-morpholinyl]methyl]-1,2-dihydro-3H-1,2,4-triazol-3-one]",slightly soluble,sparingly soluble,sparingly soluble,practically insoluble
20 µg/mL,"C[C@@H](O[C@H]1OCCN(Cc2n[nH]c(=O)[nH]2)[C@H]1c1ccc(F)cc1)c1cc(C(F)(F)F)cc(C(F)(F)F)c1 [crystalline Form I, 5-[[(2R,3S)-2-[(1R)-1-[3,5-bis(trifluoromethyl)phenyl]ethoxy]-3-(4-fluorophenyl)-4-morpholinyl]methyl]-1,2-dihydro-3H-1,2,4-triazol-3-one]",,,,
140 µg/mL,"C[C@@H](O[C@H]1OCCN(Cc2n[nH]c(=O)[nH]2)[C@H]1c1ccc(F)cc1)c1cc(C(F)(F)F)cc(C(F)(F)F)c1 [crystalline Form II, 5-[[(2R,3S)-2-[(1R)-1-[3,5-bis(trifluoromethyl)phenyl]ethoxy]-3-(4-fluorophenyl)-4-morpholinyl]methyl]-1,2-dihydro-3H-1,2,4-triazol-3-one]",,,,
